Assay results: paper PMC11310889, “Ribosomal translation of fluorinated non-canonical amino acids for de novo biologically active fluorinated macrocyclic peptides” (Chemical Science, 2024)
Where a SMILES comes first, the peptide text is derived from it. Bridges are numbered along the chain shown (N, C = ends). [ ]: non-standard residue; d: D form. Phe(3,4-F2) = N[C@@H](Cc1ccc(F)c(F)c1)C(=O)O; dPhe(4-F) = N[C@H](Cc1ccc(F)cc1)C(=O)O

How the values were obtained:
BAM complex = tested on: T1, BAM complex; test: SPR binding kinetics to BAM complex; set-up: species or system E. coli; settings: Biacore T200, 25 °C, multi-cycle kinetics, 1:1 model
T1 construct: made in house; host or cells: E. coli BL21(DE3), strain obtained from Xinmiao Fu, Fujian Normal University
T1 sequence (P0A903 25-344): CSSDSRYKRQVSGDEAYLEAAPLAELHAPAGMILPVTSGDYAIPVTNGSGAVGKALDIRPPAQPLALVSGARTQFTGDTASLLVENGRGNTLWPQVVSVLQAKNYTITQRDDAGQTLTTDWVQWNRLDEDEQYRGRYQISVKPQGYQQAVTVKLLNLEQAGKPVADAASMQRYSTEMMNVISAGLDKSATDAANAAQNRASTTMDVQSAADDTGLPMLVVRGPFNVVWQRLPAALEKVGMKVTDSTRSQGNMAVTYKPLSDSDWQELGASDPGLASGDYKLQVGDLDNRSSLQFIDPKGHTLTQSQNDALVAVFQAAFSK
T1 sequence (P0AC02 20-245, further chain): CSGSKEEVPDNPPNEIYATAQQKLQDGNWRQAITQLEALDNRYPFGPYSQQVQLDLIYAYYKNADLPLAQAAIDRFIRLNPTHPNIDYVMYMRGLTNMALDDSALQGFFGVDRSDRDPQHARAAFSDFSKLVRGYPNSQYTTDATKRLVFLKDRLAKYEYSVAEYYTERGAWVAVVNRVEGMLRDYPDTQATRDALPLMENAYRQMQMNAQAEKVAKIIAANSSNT
T1 sequence (P0A937 20-113, further chain): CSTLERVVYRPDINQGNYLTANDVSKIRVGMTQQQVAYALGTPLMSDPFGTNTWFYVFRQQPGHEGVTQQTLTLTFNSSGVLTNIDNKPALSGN
T1 sequence (P77774 20-392, further chain): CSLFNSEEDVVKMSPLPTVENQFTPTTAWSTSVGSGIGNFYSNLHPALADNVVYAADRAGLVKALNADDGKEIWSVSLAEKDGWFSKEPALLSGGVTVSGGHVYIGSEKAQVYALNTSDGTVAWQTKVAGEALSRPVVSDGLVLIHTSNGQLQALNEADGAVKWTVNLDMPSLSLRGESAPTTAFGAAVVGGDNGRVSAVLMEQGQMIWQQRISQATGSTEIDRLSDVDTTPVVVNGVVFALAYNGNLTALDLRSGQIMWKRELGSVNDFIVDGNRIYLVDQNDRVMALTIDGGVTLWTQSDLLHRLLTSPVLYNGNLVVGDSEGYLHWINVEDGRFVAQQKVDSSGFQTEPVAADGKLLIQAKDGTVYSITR
Experimental: Expression and purification of the BAM complex
The E. coli BL21(DE3) cells containing all five Bam proteins (BamA, B, C, D, and E) was obtained from Xinmiao Fu of Fujian Normal University and used for expression and purification.
The BL21(DE3) cells plated onto LB-ampicillin agar plates and incubated overnight at 37 °C. A 20 mL culture incubated overnight at 37°C was prepared from a single colony in LB medium supplemented with 100 mg/L of ampicillin. The strain was inoculated into fresh LB liquid medium according to the inoculation ratio of 1:100 and incubated at 37 ℃ for about 4 hours until the OD600 reached about 1.0. The temperature of the incubator was set to 20 ℃ and then cultured for 1 hour, and 200 uM IPTG was added to induce overnight. First of all, the induced cells were collected by freezing centrifuge 3000 rpm for 30 min, and the collected cells were resuspended with Buffer 1 (20 mM Tris-HCl, pH 8.0, 150 mM NaCl), and then crushed low temperature and pressure with a high pressure crusher. The broken cells were centrifuged 1 hour at 4 °C for18000 rpm by high speed centrifuge. After centrifugation at 4 °C 18000 rpm for 1 hour, and the supernatant was discarded and the cell membrane was collected. The collected cell membranes were resuscitated with Buffer 2 (20 mM Tris-HCl, pH 8.0, 300 mM NaCl, 1% DDM) and then dissolved at 4 °C for 2 hours. After dissolving the membrane, the supernatant was collected by high speed centrifuge at 18,000 rpm. The 20 mM imidazole was added to the supernatant and incubated with a 2 mL Ni-NTA sefinoseTM resin column for 1 hour. After incubation, 10 column volumes were washed with Buffer 3 (20 mM Tris-HCl, pH 8.0, 300 mM NaCl, 0.025%DDM) containing 30 mM and 50 mM imidazole respectively. Then, the protein was eluted with Buffer 3 containing 200 mM imidazole, and the eluted protein was collected. Finally, using the 20-fold molar excess of EZ-LinkTM Sulfo-NHS-LC-LC-Biotin for BAM complex, and incubate reaction on ice for 2 hours. After the protein labeling is completed, dialysis is used to purify the labeled protein to remove the remaining unreacted and hydrolyzed biotin reagents. […]
The mobile phase was 0.1% TFA aqueous solution / acetonitrile containing 0.1%
TFA. The purified macrocyclic peptides and fluorinated macrocyclic peptides were confirmed by electrospray ionization mass spectrometry (ESI-MS).
Binding kinetics analysis by SPR
The binding kinetics between the selected peptides and EphA2 were tested by SPR using a Biacore T200 instrument (GE Healthcare) at 25 °C. In this study, the running buffer was HBS-EP+ buffer (10 mM HEPES-KOH (pH 7.4), 150 mM NaCl, 50 μM EDTA, 0.05% Tween 20) containing 0.1% DMSO. Biotin capture kit (GE Healthcare) was used to fix human EphA2 on the surface of Biacore CAP chip with a density of 1050 RU. Five different concentrations of peptides were injected at the flow rate of 30 μL/min, and their kinetic constants were determined. The binding kinetic was quantified by single cycle kinetic method. Finally, the binding sensorgrams was analyzed by Biacore evaluation software, and the standard 1:1 model was used for fitting.
The binding kinetics between the selected peptides and BAM complex were tested by SPR using […]
a Biacore T200 instrument (GE Healthcare) at 25 °C. In this study, the running buffer was HBS-EP+ […]
0.1% DMSO. The Series S Sensor Chip CM5 was used to fix BAM complex on the surface of Biacore CM5 chip with a density of 9500 RU. The binding mode was multi-cycle kinetics (one sample concentration one cycle). Finally, the binding sensorgrams was analyzed by Biacore evaluation software, and the standard 1:1 model was used for fitting.
Preliminary evaluation of the antibacterial activity of macrocyclic peptides against E. coli […]
Remove the previously preserved E. coli W3110 cells from the -80 °C refrigerator, scrape a little, inoculate it into 1 mL LB liquid medium, and culture overnight in 37°C shaker. The strain was […]

human EphA2 = human EphA2 (Homo sapiens, UniProt P29317); test: SPR binding kinetics to EphA2; settings: Biacore T200, 25 °C, HBS-EP+ buffer pH 7.4 with 0.1% DMSO, biotinylated human EphA2 on CAP chip (1050 RU), single cycle kinetics, five concentrations, 1:1 model
Sequence of human EphA2 (P29317 24-976): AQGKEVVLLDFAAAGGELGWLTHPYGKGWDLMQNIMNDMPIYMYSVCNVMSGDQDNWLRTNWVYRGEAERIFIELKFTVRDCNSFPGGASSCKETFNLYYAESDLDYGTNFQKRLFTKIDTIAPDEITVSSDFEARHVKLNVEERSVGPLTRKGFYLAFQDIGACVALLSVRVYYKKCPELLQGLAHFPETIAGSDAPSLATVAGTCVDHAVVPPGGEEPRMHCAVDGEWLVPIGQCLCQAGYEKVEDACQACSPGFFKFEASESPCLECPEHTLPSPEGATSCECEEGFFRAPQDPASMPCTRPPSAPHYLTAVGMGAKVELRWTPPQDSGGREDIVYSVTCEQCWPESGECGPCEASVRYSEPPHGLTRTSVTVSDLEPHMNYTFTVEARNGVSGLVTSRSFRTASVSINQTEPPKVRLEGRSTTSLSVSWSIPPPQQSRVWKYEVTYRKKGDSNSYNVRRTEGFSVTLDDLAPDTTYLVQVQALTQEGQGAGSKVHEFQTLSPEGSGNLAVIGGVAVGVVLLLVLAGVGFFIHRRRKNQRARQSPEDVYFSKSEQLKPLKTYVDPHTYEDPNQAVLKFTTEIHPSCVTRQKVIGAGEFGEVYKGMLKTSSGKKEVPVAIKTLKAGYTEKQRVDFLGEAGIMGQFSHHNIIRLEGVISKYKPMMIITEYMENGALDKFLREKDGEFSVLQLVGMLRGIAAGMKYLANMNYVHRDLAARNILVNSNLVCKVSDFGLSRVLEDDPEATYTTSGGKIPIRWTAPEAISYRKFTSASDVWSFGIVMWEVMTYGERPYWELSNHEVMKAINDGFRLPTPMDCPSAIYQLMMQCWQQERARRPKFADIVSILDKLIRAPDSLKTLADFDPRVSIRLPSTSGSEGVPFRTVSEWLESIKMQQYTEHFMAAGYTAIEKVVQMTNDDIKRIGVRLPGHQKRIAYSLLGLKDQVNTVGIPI
Experimental: The cDNAs was detected by QuantStudio™ real-time PCR system (Applied Biosystems), then PCR was recovered by phusion® high-fidelity DNA polymerase and transcribed in vitro to construct a mRNA library rich in BAM complex(or EphA2) binding sequences to prepare for the next round of screening. Starting with the second round of screening, six more negative selections were added before positive selections to remove unwanted beads binders. Finally, the cDNAs recovered in the sixth(or fifth) round was deep sequencing using NovaSeq 6000 system (Ilumina).
General procedures for solid-phase synthesis of selected peptides
In this study, macrocyclic peptides and fluorinated macrocyclic peptides were synthesized by standard Fmoc solid phase peptide synthesis (SPPS). Firstly, a mixture (0.3 mmol Fmoc-Gly-OH and 0.3 mmol HOBT dissolved in 8 mL DMF and 0.5 mL DIC) was prepared, and 0.5 g Rink Amide MBHA resin was added to the mixture, and then reacted under nitrogen protection for 1.5 h. The resin was filtered and washed at least three times with DMF and DCM, and a deprotective agent (DMF solution containing 20% piperidine) was added to remove the Fmoc protective group. Then a new mixture (0.9 mmol Fmoc-AA-OH and 0.9 mmol HOBT dissolved in 10 mL DMF and 1 mL DIC) was prepared and condensation reaction was carried out under nitrogen protection for 1 hour.
By repeating the steps of deprotection and condensation reaction, the desired peptide was finally obtained, and the bromoacetyl group was connected to the N-terminal free α-amino group of the resin peptide. […]
The binding kinetics between the selected peptides and EphA2 were tested by SPR using a Biacore T200 instrument (GE Healthcare) at 25 °C. […] Five different concentrations of peptides were injected at the flow rate of 30 μL/min, and their kinetic constants were determined. The binding kinetic was quantified by single cycle kinetic method. Finally, the binding sensorgrams was analyzed by Biacore evaluation software, and the standard 1:1 model was used for fitting. […]

Compound | ka for BAM complex (BAM complex; CM5 chip) | Kd (BAM complex; HBS-EP+ buffer pH 7.4 with 0.1% DMSO, BAM complex on CM5 chip (9500 RU)) | Kd (human EphA2)
CC[C@H](C)[C@@H]1NC(=O)[C@H](CC(C)C)NC(=O)[C@@H](Cc2ccc(O)cc2)NC(=O)CSC[C@@H](C(=O)NCC(N)=O)NC(=O)[C@H](C(C)C)NC(=O)[C@H](CCCNC(=N)N)NC(=O)[C@H](Cc2ccccc2)NC(=O)[C@@H]2CCCN2C(=O)[C@H](Cc2c[nH]cn2)NC(=O)[C@H](CO)NC(=O)[C@H](CCCNC(=N)N)NC(=O)[C@H](CO)NC(=O)[C@H](Cc2ccc(O)cc2)NC(=O)[C@H](Cc2c[nH]c3ccccc23)NC1=O [BAM-D1] ({CH2CO}-[dY]LIWYSRSHPFRVCG-NH2; thioether N-14) | 0.43 ×10 4 M-1s-1 | 763 nM | 
CC[C@H](C)[C@@H]1NC(=O)[C@@H](Cc2ccc(F)cc2)NC(=O)CSC[C@@H](C(=O)NCC(N)=O)NC(=O)[C@H](Cc2ccc(O)cc2)NC(=O)[C@H](CCCNC(=N)N)NC(=O)[C@H](CCC(N)=O)NC(=O)[C@H]([C@@H](C)O)NC(=O)[C@H]([C@@H](C)O)NC(=O)[C@H](Cc2ccc(F)c(F)c2)NC(=O)[C@H](CCCCN)NC(=O)[C@H](CC(C)C)NC(=O)[C@H](C)NC(=O)[C@H](Cc2ccc(O)cc2)NC(=O)[C@H](Cc2c[nH]c3ccccc23)NC1=O [Ep-F1] ({CH2CO}-[dPhe(4-F)]IWYALK[Phe(3,4-F2)]TTQRYCG-NH2; thioether N-14) |  |  | 9.9 nM
CC(C)C[C@@H]1NC(=O)[C@@H]2CCCN2C(=O)[C@H](Cc2c[nH]cn2)NC(=O)[C@@H](Cc2ccc(F)cc2)NC(=O)CSC[C@@H](C(=O)N[C@@H](Cc2c[nH]c3ccccc23)C(=O)N[C@H](C(=O)N[C@@H](CCCCN)C(=O)N[C@@H](CO)C(=O)NCC(N)=O)[C@@H](C)O)NC(=O)CNC(=O)[C@H](Cc2ccc(F)c(F)c2)NC(=O)[C@H](CC(N)=O)NC(=O)[C@H](Cc2ccc(O)cc2)NC1=O [Ep-F2] ({CH2CO}-[dPhe(4-F)]HPLYN[Phe(3,4-F2)]GCWTKSG-NH2; thioether N-9) |  |  | 0.25 nM
Ep-F2-M2: variant of Ep-F2 measured by SPR (Fig. S4) to examine the role of fluorination (FHPLYNFGCWTKSG; Parent Ep-F2 is printed as Ac-(4-F-DPhe)HPLYN(2F-LPhe)GCWTKSG-NH2) |  |  | 0.29 nM
